PubChem BioAssay (NCI)
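Assay format: 96-well plates, 48-hour exposure. The concentration for 50% growth inhibition is given as GI50. At the TGI there is no net growth.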

Experiments:
Test in all cases: NCI anticancer screen, dose series, 48 h
SNB-75 CNS = tested on: SNB-75 CNS
LOX IMVI melanoma = tested on: LOX IMVI melanoma
SF-539 CNS = tested on: SF-539 CNS
SW-620 colon = tested on: SW-620 colon
COLO 205 colon = tested on: COLO 205 colon
MDA-MB-435 = tested on: MDA-MB-435
T-47D breast = tested on: T-47D breast
UACC-62 melanoma = tested on: UACC-62 melanoma
HOP-92 NSCLC = tested on: HOP-92 NSCLC

SMILES	TGI (SNB-75 CNS) [µM]	TGI (LOX IMVI melanoma) [µM]	TGI (SF-539 CNS) [µM]	TGI (SW-620 colon) [µM]	TGI (COLO 205 colon) [µM]	TGI (MDA-MB-435) [µM]	TGI (T-47D breast) [µM]	TGI (UACC-62 melanoma) [µM]	TGI (HOP-92 NSCLC) [µM]	GI50 (SNB-75 CNS) [nM]	GI50 (SF-539 CNS) [nM]	GI50 (SW-620 colon) [nM]	GI50 (MDA-MB-435) [nM]	GI50 (T-47D breast) [nM]	GI50 (UACC-62 melanoma) [nM]
O=C(O)c1ccc(Nc2nc3cc(C(F)(F)F)ccc3nc2-c2ccccc2)cc1	63.9	32.5	56.4	30.9	37.9	> 100	35.1	26.2							
O=[N+]([O-])c1sc2ccc(Cl)cc2c1Nc1ccc(Cl)cc1	> 100	> 100	> 100	> 100	> 100	> 100	> 100	> 100							
O=C(O)CCC(NC(=O)c1ccc(CNc2nc3ccccc3nc2C(=O)O)cc1)C(=O)O (stereo not given)	> 100	> 100		> 100	> 100	> 100		> 100							
Nc1ccccc1N=Nc1c(S(=O)(=O)O)cc2cc(S(=O)(=O)O)cc(O)c2c1O	> 100	> 100		> 100	> 100	> 100	> 100	> 100	> 100						
Cc1cc(C)n(CN(Cn2nc(C)cc2C)c2ccccc2)n1		23.8	38.3	69.8	28.1	29.1	> 100	26.5	> 100						
CC(O[Si](c1ccccc1)(c1ccccc1)C(C)(C)C)[C@H](NC(=O)OC(C)(C)C)C(=O)O (stereo not given in full)	> 100			> 100	46.1		> 100		78.1						
Oc1ccc(-c2cn3cc(C(F)(F)F)ccc3n2)cc1	> 100	> 100		> 100	> 100	> 100	60.7	> 100	> 100						
CCOC(=O)NC(=S)c1ccc(O)c2ccccc12		> 100	> 100	> 100	> 100	> 100	> 100	> 100							
Cc1cc2c(cc1C)C(=O)/C(=N/Nc1ccc(F)cc1)CCO2		> 100	> 100	> 100	> 100	> 100	> 100	> 100	> 100						
CC(=O)N=C1N(/C=C2\C(=O)Oc3ccccc3C2=O)C(=O)/C(=C/c2ccccc2Cl)N1C	> 100	> 100	> 100	> 100	> 100	> 100	> 100	> 100							
COc1ccc(-c2nc(-c3cnccn3)n(COCCO)n2)cc1		> 100	> 100	> 100	> 100	> 100	> 100	> 100	> 100						
O=C1CN(c2ccc(Cl)cc2)C(=O)CN1NCNN1CC(=O)N(c2ccc(Cl)cc2)CC1=O	> 100		> 100	> 100	> 100	> 100		> 100	> 100						
CCOC(=O)c1[nH]c2nc(SC)nc(Nc3ccccc3Cl)c2c1N	38.4	44.8		> 100	> 100	> 100	33.9	84.7							
CCCCCCCCCc1c(O)c(O)c(CCCCCCCCC)c(CCCCCCCCC)c1CCCCCCCCC		> 100	> 100	> 100	> 100	> 100	> 100	> 100							
C=C1CC(COc2ccc3c(C)cc(=O)oc3c2)(c2ccccc2)OC1=O (stereo not given)	19.2	3.1	5.05	2.31	2.76	8.03		3.05	1.56						
Cc1ccc(C2CC(c3cccc(Nc4ccncc4)c3)=NN2c2ccccc2)cc1 (stereo not given)	2.88		3.16	3.3		3.06	4.85	3.12		1320	1740	1710	1640	2020	1710
CN(C)c1ccc(C(=NN)c2ccc(N(C)C)cc2)cc1	2.83	> 100		> 100		0.298	> 100	> 100	> 54.4						
CC(C)(C)NC(=O)C12C3C4C1C1C2C3C41C(=O)NC(C)(C)C (stereo not given)		> 100	> 100	> 100	> 100	> 100	> 100	> 100	71.6						
O=C1/C(=C/c2cccs2)NC(=S)N1CN1CCCC(CO)C1 (stereo not given)	> 100	> 100		> 100	> 100	> 100		> 100	> 100						
